Measurements as given in patent US7939712B2, “Method to alleviate abiotic stress in plants by expression of mitochondrial-targeted purple acid phosphatase” (The Chinese University of Hong Kong, priority 2006, dated 2011).
Marks after values point to notes of the source that are not given here.

Test system: BY-2 cells
Assay: Analysis of mitochondria integrity (Rh123 staining) under NaCl or PEG stress
Type: cell-based, tobacco
Settings: wild type BY-2 + 10 mM ascorbic acid
Experimental: Cells were treated with 200 mM NaCl for 1 h or 2% PEG for 1 h before staining with 10 μg/ml rhodamine-123 (Rh123) (R302, Molecular Probes) for 1 h. The signal of Rh123 was excited by green HeNe laser at 543 nm. The filter set HQ590/70 was used and confocal images were collected by the Bio-Rad Radiance 2100 system. 10-25 cells were counted for each sample for statistical analysis.
Transgenic BY-2 cell lines prepared as in Example 1 were cultured to express the GmPAP3 protein and subjected to treatment with sodium chloride or polyethylene glycol (PEG, osmotic stress) as explained above and in the description of the results as shown in FIGS. 3A-3L. The results on mitochondrial integrity were compared with the effect of the presence of ascorbic acid. The results are shown in the table below which summarizes the data in FIGS. 3A-3L. The data are the results of counting 10-25 cells and the experiment repeated 3 times. The percentage was presented as the mean value of 3 experiments±SD, where ** denotes statistical difference (p<0.01) from the wild type BY-2 cells under the same treatment, based on one-way ANOVA followed by the Turkey test.
Wild type (WT) BY-2 cells (FIGS. 3A-3C) and GmPAP3 transgenic BY-2 cell lines #20 and #29 (FIGS. 3G-3I and FIGS. 3J-3L, respectively) without ascorbic acid supplements and wild type BY-2 cells with 10 mM ascorbic acid supplements (+Asc) (FIGS. 3D-3F) were pre-treated in a cell culture medium without stress (FIGS. 3A, 3D, 3G and 3J), with 200 mM NaCl for 1 hr (FIGS. 3B, 3E, 3H and 3K), or with 2% PEG for 1 h (FIGS. 3C, 3F, 3I, 3L) before staining with 10 μg/mL Rh123 for another hour. The signal of Rh123 was observed using a confocal laser scanning microscope (see materials and methods). 10-25 cells were counted for each line. Scale bar=50 μm.

O=C1O[C@H]([C@@H](O)CO)C(O)=C1O [ascorbic acid]
% cells with intact mitochondria, NaCl (200 mM NaCl 1 h, mean of 3 experiments ± SD): 86.20 ± 3.3** % | % cells with intact mitochondria, PEG (2% PEG 1 h, mean of 3 experiments ± SD): 82.16 ± 3.7** % | % cells with intact mitochondria, Control (medium without stress): 100%
